Tests used:
CCK-1 receptor = target: T1, CCK-1 receptor (Homo sapiens, UniProt P32238); assay: CCK1 binding assay ([125I]-BH-CCK-8S displacement, CHO-K1 membranes); settings: membranes of CHO-K1 cells stably transfected with the CCK-1 receptor, 20 pM [125I]-BH-CCK-8S, 0.3 μM PD-134,308 present, 60 min at 21±3° C.; for Ki: read-out: CCK1 pKi (converted)
T1 construct: expressed in transfected cells; host or cells: CHO-K1
T1 sequence (P32238 1-428): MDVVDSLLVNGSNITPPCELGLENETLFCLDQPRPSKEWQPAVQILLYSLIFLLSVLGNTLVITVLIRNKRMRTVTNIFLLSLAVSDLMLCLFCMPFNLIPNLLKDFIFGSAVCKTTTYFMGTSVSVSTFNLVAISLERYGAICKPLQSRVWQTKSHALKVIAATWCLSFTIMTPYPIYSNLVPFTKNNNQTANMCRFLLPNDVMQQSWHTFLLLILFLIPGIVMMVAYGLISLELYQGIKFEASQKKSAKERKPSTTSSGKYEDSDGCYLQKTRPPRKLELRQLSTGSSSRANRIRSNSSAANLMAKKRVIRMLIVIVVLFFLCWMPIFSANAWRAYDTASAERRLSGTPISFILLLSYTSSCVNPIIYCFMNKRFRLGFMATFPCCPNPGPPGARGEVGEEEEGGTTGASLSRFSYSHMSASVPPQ
Outline: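 Membranes from CHO-K1 cells stably expressing CCK-1 incubated 1 h at 21±3° C with 20 pM [125I]-BH-CCK-8S in HEPES buffer pH 7.2 containing 0.3 μM PD-134,308 to block CCK-2. Bound radioactivity read by gamma counting after filtration. pKi derived via Cheng-Prusoff, with specific binding defined using 2-NAP.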

CCK2 receptor = target: T2, CCK2 receptor (Homo sapiens, UniProt P32239); assay: CCK2 binding assay ([125I]-BH-CCK-8S displacement, HEKZFP membranes); settings: membranes of doxycycline-induced HEKZFP cells, 20 pM [125I]-BH-CCK-8S, 60 min at 21±3° C.; for Ki: read-out: CCK2 pKi (converted)
T2 construct: analyzed for ZFP expression as well as CCK2R induction upon addition of doxycycline to the culture medium; endogenous in cells
T2 sequence (P32239 1-447): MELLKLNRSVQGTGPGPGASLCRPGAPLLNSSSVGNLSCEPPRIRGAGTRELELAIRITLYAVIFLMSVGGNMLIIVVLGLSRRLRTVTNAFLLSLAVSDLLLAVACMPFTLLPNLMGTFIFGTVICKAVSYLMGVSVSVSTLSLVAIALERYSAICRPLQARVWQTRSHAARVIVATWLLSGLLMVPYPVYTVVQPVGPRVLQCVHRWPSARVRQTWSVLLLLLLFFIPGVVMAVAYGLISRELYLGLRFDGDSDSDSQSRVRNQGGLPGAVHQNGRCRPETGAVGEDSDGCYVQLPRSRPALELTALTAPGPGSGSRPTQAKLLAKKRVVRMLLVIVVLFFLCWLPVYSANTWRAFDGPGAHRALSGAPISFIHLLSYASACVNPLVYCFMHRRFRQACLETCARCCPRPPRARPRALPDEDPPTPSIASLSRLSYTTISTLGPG

SMILES	Ki (CCK-1 receptor) [nM]	Ki (CCK2 receptor) [nM]	CCK1 pKi (CCK-1 receptor)	CCK2 pKi (CCK2 receptor)
COC(=O)[C@H](Cc1ccc(F)c(Br)c1)NC(=O)c1cc(Cl)c(Cl)cc1NS(=O)(=O)c1cccc2nccnc12 [Example 153, (S)-3-(3-Bromo-4-fluoro-phenyl)-2-[4,5-dichloro-2-(quinoxaline-5-sulfonylamino)-benzoylamino]-propionic acid methyl ester]	–	–	6.7	6.6
COC(=O)C(NC(=O)c1ccc(Cl)cc1NS(=O)(=O)c1cccc2nccnc12)C(=O)c1ccc(Cl)c(Cl)c1 (racemic) [Example 18, (±)-2-[4-Chloro-2-(quinoxaline-5-sulfonylamino)-benzoylamino]-3-(3,4-dichloro-phenyl)-3-oxo-propionic acid methyl ester]	316	1580	–	–
O=C(N[C@@H](Cc1csc2ccccc12)C(=O)O)c1ccc(Cl)cc1NS(=O)(=O)c1cccc2nccnc12 [Example 66, (S)-3-Benzo[b]thiophen-3-yl-2-[4-chloro-2-(quinoxaline-5-sulfonylamino)-benzoylamino]-propionic acid]	2000	501	–	–
O=C(N[C@@H](Cc1ccc(F)c(Br)c1)C(=O)O)c1ccc(I)cc1NS(=O)(=O)c1c(F)cccc1F [Example 127, (S)-3-(3-Bromo-4-fluoro-phenyl)-2-[2-(2,6-difluoro-benzenesulfonylamino)-4-iodo-benzoylamino]-propionic acid]	200	79.4	–	–
O=C(N[C@@H](Cc1ccc(Cl)c(Br)c1)C(=O)O)c1ccc(Br)cc1NS(=O)(=O)c1cccc2nccnc12 [Example 155, (S)-3-(3-Bromo-4-chloro-phenyl)-2-[4-bromo-2-(quinoxaline-5-sulfonylamino)-benzoylamino]-propionic acid]	–	–	7.0	8.0
O=C(N[C@@H](Cc1ccc(F)c(Br)c1)C(=O)O)c1ccc(Cl)cc1NS(=O)(=O)c1cccc2nsnc12 [Example 156, (S)-2-[2-(Benzo[1,2,5]thiadiazole-4-sulfonylamino)-4-chloro-benzoylamino]-3-(3-bromo-4-fluoro-phenyl)-propionic acid]	–	–	6.6	8.0
CC(CNC(=O)c1ccc(Cl)cc1NS(=O)(=O)c1c(F)cccc1F)c1ccc([N+](=O)[O-])cc1 (stereo not shown) [Example 44, 4-Chloro-2-(2,6-difluoro-benzenesulfonylamino)-N-[2-(4-nitro-phenyl)-propyl]-benzamide]	100	3980	–	–
O=C(N[C@@H](Cc1ccc(Cl)c(Cl)c1)C(=O)O)c1ccc(I)cc1NS(=O)(=O)c1cccc2nccnc12 [Example 132, (S)-3-(3,4-Dichloro-phenyl)-2-[4-iodo-2-(quinoxaline-5-sulfonylamino)-benzoylamino]-propionic acid]	251	15.8	–	–
COC(=O)[C@H](Cc1ccc(Cl)cc1)NC(=O)c1ccc(Cl)cc1NS(=O)(=O)c1ccc(F)cc1F [Example 71, (S)-2-[4-Chloro-2-(2,4-difluoro-benzenesulfonylamino)-benzoylamino]-3-(4-chloro-phenyl)-propionic acid methyl ester]	126	2510	–	–
O=C(N[C@@H](Cc1ccc2ccccc2c1)C(=O)O)c1ccc(Cl)cc1NS(=O)(=O)c1cccc2nccnc12 [Example 9, (S)-2-[4-Chloro-2-(quinoxaline-5-sulfonylamino)-benzoylamino]-3-naphthalen-2-yl-propionic acid]	158	398	–	–

Now from value to compound:

Ki (CCK-1 receptor) [nM]	Ki (CCK2 receptor) [nM]	CCK1 pKi (CCK-1 receptor)	CCK2 pKi (CCK2 receptor)	SMILES
15.8	316	–	–	CC(CNC(=O)c1ccc(Br)cc1NS(=O)(=O)c1cccc2nsnc12)c1ccc(Cl)c(Cl)c1 (stereo not shown) [Example 5, 2-(Benzo[1,2,5]thiadiazole-4-sulfonylamino)-4-bromo-N-[2-(3,4-dichloro-phenyl)-propyl]-benzamide]
316	3160	–	–	O=C(N[C@H](Cc1ccc(Cl)cc1)C(=O)O)c1cc(Cl)ccc1NS(=O)(=O)c1cccc2nsnc12 [Example 62, (R)-2-[2-(Benzo[1,2,5]thiadiazole-4-sulfonylamino)-5-chloro-benzoylamino]-3-(4-chloro-phenyl)-propionic acid]
79.4	15.8	–	–	O=C(N[C@@H](Cc1ccc(Cl)c(Br)c1)C(=O)O)c1ccc(I)cc1NS(=O)(=O)c1cccc2nsnc12 [Example 91, (S)-2-[2-(Benzo[1,2,5]thiadiazole-4-sulfonylamino)-4-iodo-benzoylamino]-3-(3-bromo-4-chloro-phenyl)-propionic acid]
794	2000	–	–	CC(CNC(=O)c1c(Cl)cccc1NS(=O)(=O)c1cccc2nsnc12)c1ccc(Cl)c(Cl)c1 (stereo not shown) [Example 81, 2-(Benzo[1,2,5]thiadiazole-4-sulfonylamino)-6-chloro-N-[2-(3,4-dichloro-phenyl)-propyl]-benzamide]
126	501	–	–	O=C(N[C@@H](C(=O)O)[C@@H](O)c1ccc(Cl)c(Cl)c1)c1ccc(Cl)cc1NS(=O)(=O)c1cccc2nsnc12 (relative stereo) [Example 121, anti-2-[2-(Benzo[1,2,5]thiadiazole-4-sulfonylamino)-4-chloro-benzoylamino]-3-(3,4-dichloro-phenyl)-3-hydroxy-propionic acid]
100	631	–	–	O=C(N[C@@H](Cc1ccc(Cl)c(Cl)c1)C(=O)NCc1ccccc1)c1ccc(Cl)cc1NS(=O)(=O)c1cccc2nsnc12 [Example 129, (S)-2-(Benzo[1,2,5]thiadiazole-4-sulfonylamino)-N-[1-benzylcarbamoyl-2-(3,4-dichloro-phenyl)-ethyl]-4-chloro-benzamide]
79.4	251	–	–	COC(=O)[C@H](Cc1ccc(F)c(Br)c1)NC(=O)c1cc(Cl)c(Cl)cc1NS(=O)(=O)c1cccc2nsnc12 [Example 150, (S)-2-[2-(Benzo[1,2,5]thiadiazole-4-sulfonylamino)-4,5-dichloro-benzoylamino]-3-(3-bromo-4-fluoro-phenyl)-propionic acid methyl ester]
31.6	501	–	–	CC(CNC(=O)c1cc(Cl)c(Cl)cc1NS(=O)(=O)c1cccc2nsnc12)c1ccc(Cl)c(Cl)c1 (racemic) [Example 58, (±)-2-(Benzo[1,2,5]thiadiazole-4-sulfonylamino)-4,5-dichloro-N-[2-(3,4-dichloro-phenyl)-propyl]-benzamide]
126	398	–	–	CC(CNC(=O)c1ccc(Cl)cc1NS(=O)(=O)c1cccc2nsnc12)c1ccc(Cl)cc1 (racemic) [Example 1, (±)-2-(Benzo[1,2,5]thiadiazole-4-sulfonylamino)-4-chloro-N-[2-(4-chloro-phenyl)-propyl]-benzamide]
79.4	631	–	–	O=C(N[C@@H](Cc1ccc(Cl)c(Cl)c1)C(=O)Nc1ccccc1)c1ccc(Cl)cc1NS(=O)(=O)c1cccc2nsnc12 [Example 139, (S)-2-(Benzo[1,2,5]thiadiazole-4-sulfonylamino)-4-chloro-N-[2-(3,4-dichloro-phenyl)-phenylcarbamoyl-ethyl]-benzamide]
–	–	7.6	5.9	C[C@@H](NC(=O)c1ccc(Cl)cc1NS(=O)(=O)c1cccc2nsnc12)[C@@H](O)c1cccc(Br)c1 [Example 108, 2-(Benzo[1,2,5]thiadiazole-4-sulfonylamino)-N-[(2S,1R)-2-(3-bromo-phenyl)-2-hydroxy-1-methyl-ethyl]-4-chloro-benzamide]
398	31.6	–	–	O=C(N[C@@H](Cc1ccc(Cl)cc1Cl)C(=O)O)c1ccc(I)cc1NS(=O)(=O)c1cccc2nsnc12 [Example 133, (S)-2-[2-(Benzo[1,2,5]thiadiazole-4-sulfonylamino)-4-iodo-benzoylamino]-3-(2,4-dichloro-phenyl)-propionic acid]
100	63.1	–	–	O=C(N[C@@H](Cc1ccc(Cl)c(Cl)c1)C(=O)O)c1cc(Cl)c(Cl)cc1NS(=O)(=O)c1cccc2nsnc12 [Example 141, (S)-2-[2-(Benzo[1,2,5]thiadiazole-4-sulfonylamino)-4,5-dichloro-benzoylamino]-3-(3,4-dichloro-phenyl)-propionic acid]

Reference: patent US7855292B2, “Sulfonamide compounds” (Janssen Pharmaceutica NV, priority 2004, dated 2010)
